# Data reported in US5270321A, “Use of dicentrine and its derivatives for the treatment of arrhythmia” (priority 1992, dated 1993).
# Where two headings read alike, the source gives them in different places.
# Assays:
# α1 -adrenoceptor = biological target: T1, α1 -adrenoceptor (Rattus norvegicus, UniProt P23944); test: α1-adrenoceptor antagonism, concentration-response (Schild) analysis of norepinephrine- and phenylephrine-induced contraction of rat thoracic aortae; format: cell-based; details: for Kb: means ± S.E.M.
# T1 construct: contraction of rat thoracic aortae; from tissue; host or cells: rat thoracic aorta
# T1 sequence (P23944 1-561): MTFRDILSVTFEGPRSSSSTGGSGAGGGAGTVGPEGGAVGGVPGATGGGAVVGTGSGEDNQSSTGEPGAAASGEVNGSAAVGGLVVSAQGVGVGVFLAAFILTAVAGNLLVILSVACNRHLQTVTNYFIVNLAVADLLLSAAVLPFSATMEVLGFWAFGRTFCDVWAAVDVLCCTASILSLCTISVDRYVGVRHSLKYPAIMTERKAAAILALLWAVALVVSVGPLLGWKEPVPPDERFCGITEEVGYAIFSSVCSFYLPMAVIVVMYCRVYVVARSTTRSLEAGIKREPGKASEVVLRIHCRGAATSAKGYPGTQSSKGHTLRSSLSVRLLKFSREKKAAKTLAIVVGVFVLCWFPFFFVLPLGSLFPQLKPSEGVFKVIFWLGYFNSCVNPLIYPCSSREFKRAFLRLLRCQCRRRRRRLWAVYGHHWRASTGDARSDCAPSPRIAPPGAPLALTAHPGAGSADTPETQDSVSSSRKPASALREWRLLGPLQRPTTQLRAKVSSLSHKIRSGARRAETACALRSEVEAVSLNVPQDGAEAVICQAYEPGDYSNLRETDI
# [1] = system: pentobarbital-anesthetized rats; test: Systemic hemodynamic parameters of anesthetized rats; format: in vivo, rat
# rat ventricular cells = test: Action potential in rat ventricular cells; format: cell-based; details: for AP amplitude / APD50 (action potential duration measured at 50% repolarization from the peak amplitude) / Tp (time to peak measured from the start of depolarization to the peak of the action potential): 3 μM, Ca^++ -Tyrode, 3 to 5 min exposure, means ± S.E.M.
# From the text: (§1) In rat ventricular cells, the effects of dicentrine on action potential and membrane current were studied. […] However, calcium current was less affected.
# The effects of dicentrine and quinidine on action potential were compared and studied in rat ventricular cells. […] In addition to the prolongation of APD50, a depression of initial upstroke amplitude from 138.3±2.6 mV to 125.5±4.5 mV and prolongation of the time to peak amplitude from 5.0±0.5 msec to 10.0±1.9 msec were observed.
# rat thoracic aorta = test: Norepinephrine-induced contraction of thoracic aorta; format: cell-based
# From the text: They inhibited the aggregation of washed rabbit platelets induced by ADP, collagen, arachidonic acid and platelet-activating factor (PAF). […] Furthermore, the action potential of rat ventricular cells was prolonged by these fractions. After rechromatograph on a silica gel column with n-hexane-ethylacetate (2:1), four potent compounds, dicentrine, N-methylnandigerine, N-methylovigenine and dicentrinone were obtained.
# The dried, ground root material (500 g) was extracted with 95% ethanol, and the extract was concentrated in vacua and fractionated into ethanol- and ethylacetate-soluble fractions. The ethylacetate-soluble fraction was then applied to a column of silica gel and eight fractions were obtained.
# Concentration: arachidonic acid (100 μM), collagen (10 μg/ml),
# norepinephrine (NE, 3 μM), each fraction (100 μg/ml).
# aorta = test: Aortic contraction induced by U-46619, angiotensin II, high potassium or carbachol; format: cell-based, rat
# guinea-pig trachea = test: Contraction and relaxation of guinea-pig trachea; format: cell-based
# [2] = system: transient outward and steady state outward current; test: Voltage clamp: transient outward and steady state outward current in rat ventricular cells; format: cell-based
# From the text: as §1
# calcium current = test: Voltage clamp: calcium current in rat ventricular cells; format: cell-based
# From the text: as §1
# [3] = system: fast sodium inward current; test: Fast sodium inward current in rat ventricular cells; format: cell-based
# From the text: as §1
# [4] = system: conscious spontaneously hypertensive (SH) rats; test: Mean arterial pressure in conscious spontaneously hypertensive (SH) rats; format: in vivo, rat
# normotensive (NT) rats = test: Mean arterial pressure in conscious normotensive (NT) rats; format: in vivo, rat
# isolated thoracic aorta = test: Contractile force of isolated thoracic aorta of rats fed with high cholesterol and high fat diet; format: in vivo, rat
# serum triglyceride = test: Serum triglyceride level in rats fed with cholesterol-triglyceride-rich diet; format: in vivo, rat
# [5] = pentobarbital-anesthetized rats
# [6] = concentration-response curve analysis
compound,measurement,setting,value
"COc1cc2nc(N3CCN(C(=O)c4ccco4)CC3)nc(N)c2cc1OC [Prazosin, prazosin, reference compound]",r,α1 -adrenoceptor; agonist phenylephrine,0.99
same,cardiac output (in words),[1]; [5],little or no change in cardiac output (CO)
same,mean arterial pressure (in words),[1]; [5],a decrease in mean arterial pressure (MAP)
same,total peripheral resistance (in words),[1]; [5],a reduction in total peripheral resistance by increasing blood flow
"COC(=O)[C@@H]1[C@H]2C[C@H]3c4[nH]c5ccccc5c4CCN3C[C@@H]2CC[C@@H]1O [Yohimbine, yohimbine, reference compound]",r,α1 -adrenoceptor; agonist phenylephrine,0.99
same,Kb,"α1 -adrenoceptor; pA2, agonist phenylephrine",631 nM
"C=C[C@H]1C[N@@]2CC[C@H]1C[C@@H]2[C@@H](O)c1ccnc2ccc(OC)cc12 [Quinidine, quinidine, reference compound]",AP amplitude,rat ventricular cells,121.2 ± 2.3 mV
same,APD50 (action potential duration measured at 50% repolarization from the peak amplitude),rat ventricular cells,276.0 ± 18.6 ms
same,Tp (time to peak measured from the start of depolarization to the peak of the action potential),rat ventricular cells,10.8 ± 2.4 ms
"COc1cc2c(cc1OC)-c1c3c(cc4c1[C@H](C2)N(C)CC4)OCO3 [Dicentrine, dicentrine]",vasorelaxant potency (in words),rat thoracic aorta,the most potent vasorelaxant in rat thoracic aorta
same,r,α1 -adrenoceptor; agonist norepinephrine,0.99
same,Kb,"α1 -adrenoceptor; agonist norepinephrine, read-out: pA2 (converted)",6.46 nM
same,r,α1 -adrenoceptor; agonist phenylephrine,0.99
same,potency compared with phentolamine or yohimbine (in words),α1 -adrenoceptor; [6],much more potent than phentolamine or yohimbine
same,potency compared with prazosin (in words),α1 -adrenoceptor; [6],less potent than prazosin
same,antagonism in denuded aorta (in words),α1 -adrenoceptor; denuded aorta,These effects still persisted in denuded aorta
same,Kb,"α1 -adrenoceptor; pA2, agonist phenylephrine",0.977 nM
same,antagonism of norepinephrine- or phenylephrine-induced vasoconstriction (in words),α1 -adrenoceptor; rat aorta,competitive antagonism
same,"aortic contraction induced by U-46619, angiotensin II, high potassium or carbachol (in words)",aorta,did not affect
same,contraction of guinea-pig trachea caused by histamine or carbachol (in words),guinea-pig trachea; histamine or carbachol,slightly inhibited
same,B-adrenoceptor relaxation to isoprenaline in trachea (in words),guinea-pig trachea; isoprenaline,not affected
same,AP amplitude,rat ventricular cells,125.5 ± 4.5 mV
same,APD50 (action potential duration measured at 50% repolarization from the peak amplitude),rat ventricular cells,201.9 ± 28.7 ms
same,Tp (time to peak measured from the start of depolarization to the peak of the action potential),rat ventricular cells,10.0 ± 1.9 ms
same,AP amplitude,rat ventricular cells; listed as dicentrine,125.5±4.5 mV
same,APD50 (action potential duration measured at 50% repolarization from the peak amplitude),rat ventricular cells; listed as dicentrine,201.9 ± 28.7 ms
same,Tp (time to peak measured from the start of depolarization to the peak of the action potential),rat ventricular cells; listed as dicentrine,10.0 ± 1.9 ms
same,action potential duration (in words),rat ventricular cells; stimulation frequency 0.1 Hz,prolonged the action potential
same,initial upstroke amplitude (in words),rat ventricular cells; stimulation frequency 0.1 Hz,reduced the initial upstroke amplitude
same,time to peak (in words),rat ventricular cells; stimulation frequency 0.1 Hz,increased the time to peak
same,transient outward and steady state outward current (in words),[2],significant inhibition of both transient outward and steady state outward current
same,calcium current (in words),calcium current,less affected
same,fast sodium inward current (in words),[3],inhibition of fast sodium inward current
same,hypotensive activity after α1 -adrenoceptor blockade (in words),[1]; after α1 -adrenoceptor blockade,completely abolished
same,mean arterial blood pressure (in words),"[1]; anesthetized rats, i.v. bolus 0.1-1.0 mg/kg",dose-related reduction in mean arterial blood pressure
same,persistence of reduction in mean arterial blood pressure,"[1]; anesthetized rats, i.v. bolus 0.1-1.0 mg/kg, throughout observation period",≥ 2 h
same,cardiac output (in words),[1]; [5],little or no change in cardiac output (CO)
same,mean arterial pressure (in words),[1]; [5],a decrease in mean arterial pressure (MAP)
same,total peripheral resistance (in words),[1]; [5],a reduction in total peripheral resistance by increasing blood flow
same,"heart rate, stroke volume (in words)","[1]; pentobarbital-anesthetized rats, in comparison with prazosin","no change in heart rate (HR), or stroke volume (SV)"
same,mean arterial pressure (in words),[4]; compared with NT rats,dose-related decreases in mean arterial pressure which were of greater magnitude in SH than in NT rats
same,persistence of hypotensive effect,[4]; oral administration,over 15 hr
same,mean arterial pressure (in words),normotensive (NT) rats,dose-related decreases in mean arterial pressure
same,contractile force of cholesterol-triglyceride-treated rat aorta (in words),isolated thoracic aorta; cholesterol-triglyceride-rich diet,restored the contractile force of cholesterol-triglyceride-treated rat aorta back to normal values
same,maximal contractile force of isolated thoracic aorta (in words),"isolated thoracic aorta; high cholesterol and high fat diet three weeks, dicentrine 10 mg/kg oral twice a day in the last week, prazosin 5 mg/kg",restored to normal range
same,serum triglyceride level (in words),serum triglyceride,decreased the serum triglyceride level
"Cc1ccc(N(CC2=NCCN2)c2cccc(O)c2)cc1 [Phentolamine, phentolamine, reference compound]",slope,"α1 -adrenoceptor; Schild slope, agonist phenylephrine, 95% confidence limits in parentheses",0.72 (0.70-1.20)
same,r,α1 -adrenoceptor; agonist phenylephrine,0.99
